Laboratory results reported in ChEMBL document CHEMBL1155673, “Yanucamides A and B, two new depsipeptides from an assemblage of the marine cyanobacteria Lyngbya majuscula and Schizothrix species” (J Nat Prod, 2000).

System: Artemia salina
Assay: Toxicity against Artemia salina after 24 hrs
Assay type: organism-based
Conditions: in vivo

Row | SMILES | LD50 [ppm]
1 | C#CCCCC1OC(=O)CCNC(=O)[C@@H](Cc2ccccc2)N(C)C(=O)[C@H](C(C)C)OC(=O)[C@H](C(C)C)NC(=O)C1(C)C (some centres not stated) [YANUCAMIDE A] | 5
2 | C#CCCCC1OC(=O)CCNC(=O)[C@@H](Cc2ccccc2)N(C)C(=O)[C@H](C(C)C)OC(=O)[C@H]([C@H](C)CC)NC(=O)C1(C)C (some centres not stated) [YANUCAMIDE B] | 5
